Where two headings read alike, the source gives them in different places.
Target: human recombinant P2X7 receptor (Homo sapiens (Human), UniProt Q99572)
Assay: YO-PRO assay: P2X7 receptor antagonistic activity (ATP-induced YO-PRO-1 uptake, FLIPR)
Conditions: read-out: IC50 [nM], antagonistic activities with respect to the P2X7 receptor
[1] = HEK-293 cells expressing human recombinant P2X7 receptor, YO-PRO-1 fluorescence, ATP 250 μM, 90 minutes, highest concentration 10 μM

human recombinant P2X7 receptor, sequence (Q99572 whole entry): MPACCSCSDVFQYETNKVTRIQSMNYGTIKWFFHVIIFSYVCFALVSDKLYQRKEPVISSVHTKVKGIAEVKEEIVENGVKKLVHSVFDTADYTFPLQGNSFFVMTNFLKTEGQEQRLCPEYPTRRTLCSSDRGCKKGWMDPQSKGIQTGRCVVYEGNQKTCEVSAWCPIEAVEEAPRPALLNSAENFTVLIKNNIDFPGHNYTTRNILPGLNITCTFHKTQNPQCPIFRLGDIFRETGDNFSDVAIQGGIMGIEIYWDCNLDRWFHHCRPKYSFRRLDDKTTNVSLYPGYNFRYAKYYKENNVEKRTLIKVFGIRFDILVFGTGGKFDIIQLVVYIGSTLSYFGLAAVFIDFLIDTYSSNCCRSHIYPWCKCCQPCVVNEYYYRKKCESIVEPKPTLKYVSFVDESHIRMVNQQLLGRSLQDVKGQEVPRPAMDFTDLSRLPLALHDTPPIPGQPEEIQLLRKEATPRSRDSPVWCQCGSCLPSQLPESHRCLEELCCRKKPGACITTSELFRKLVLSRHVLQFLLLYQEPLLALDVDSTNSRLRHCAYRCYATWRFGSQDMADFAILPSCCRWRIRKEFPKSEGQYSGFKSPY

Compound	IC50 [1] [nM]	IC50 [nM]
O=C(NC1CCc2cccc(Br)c21)C1COc2ncccc21 (stereo not shown) [Example 113, 2,3-Dihydro-furo[2,3-b]pyridine-3-carboxylic acid (7-bromo-indan-1-yl)-amide]	35.9	–
O=C1c2c(Cl)cc(Cl)cc2CC1NC(=O)C1COc2ncccc21 (stereo not shown) [Example 116, 2,3-Dihydro-furo[2,3-b]pyridine-3-carboxylic acid (5,7-dichloro-1-oxo-indan-2-yl)-amide]	9010	–
(S)-2,3-Dihydro-furo[2,3-b]pyridine-3-carboxylic acid ((1S,2R)-2-hydroxy-indan-1-yl)-amide and (R)-2,3-Dihydro-furo[2,3-b]pyridine-3-carboxylic acid ((1S,2R)-2-hydroxy-indan-1-yl)-amide [Example 65]	3400	–
(S)-2,3-Dihydro-furo[2,3-b]pyridine-3-carboxylic acid (R)-indan-1-ylamide and (R)-2,3-Dihydro-furo[2,3-b]pyridine-3-carboxylic acid (R)-indan-1-ylamide [Example 69]	–	400
